pIC50: −log10 of the molar value.
Tested on: 186277-243-T-J2-PDC complex spheroid viability
Assay: Anticancer human tumor 186277-243-T-J2-PDC patient-derived colon adenocarcinoma cell line growth inhibition
Conditions: for pIC50: curve of first compound; for viability, T/C: stronger effect = lower value
Procedure, shortened: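 Multicellular complex spheroids of tumor cells with human endothelial cells (HUVEC) and mesenchymal stem cells; the LSD1 inhibitor iadademstat was combined with standard-of-care or investigational agents. Top concentration at or near clinical Cmax, half-log dilutions; final DMSO ≤0.25%.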

[1] = second compound 0.1 µM, first compound 0.0316 µM
[2] = second compound 0.1 µM, first compound 0.1 µM
[3] = second compound 0.1 µM, first compound 0.316 µM
[4] = second compound 0.1 µM, first compound 1 µM
[5] = second compound 0.1 µM, first compound 3.16 µM
[6] = second compound 0.1 µM, first compound 10 µM
[7] = second compound 0.316 µM, first compound 0.0316 µM
[8] = second compound 0.316 µM, first compound 0.1 µM
[9] = second compound 0.316 µM, first compound 0.316 µM
[10] = second compound 0.316 µM, first compound 1 µM
[11] = second compound 0.316 µM, first compound 3.16 µM
[12] = second compound 0.316 µM, first compound 10 µM
[13] = second compound 1 µM, first compound 0.0316 µM
[14] = second compound 1 µM, first compound 0.1 µM
[15] = second compound 1 µM, first compound 0.316 µM
[16] = second compound 1 µM, first compound 1 µM
[17] = second compound 1 µM, first compound 3.16 µM
[18] = second compound 1 µM, first compound 10 µM
[19] = second compound 3.16 µM, first compound 0.0316 µM
[20] = second compound 3.16 µM, first compound 0.1 µM
[21] = second compound 3.16 µM, first compound 0.316 µM
[22] = second compound 3.16 µM, first compound 1 µM
[23] = second compound 3.16 µM, first compound 3.16 µM
[24] = second compound 3.16 µM, first compound 10 µM
[25] = second compound 10 µM, first compound 0.0316 µM
[26] = second compound 10 µM, first compound 0.1 µM
[27] = second compound 10 µM, first compound 0.316 µM
[28] = second compound 10 µM, first compound 1 µM
[29] = second compound 10 µM, first compound 3.16 µM
[30] = second compound 10 µM, first compound 10 µM
[31] = second compound 0.1 µM, first compound 0.00949 µM
[32] = second compound 0.1 µM, first compound 0.03 µM
[33] = second compound 0.1 µM, first compound 0.0949 µM
[34] = second compound 0.1 µM, first compound 0.3 µM
[35] = second compound 0.316 µM, first compound 0.00949 µM
[36] = second compound 0.316 µM, first compound 0.03 µM
[37] = second compound 0.316 µM, first compound 0.0949 µM
[38] = second compound 0.316 µM, first compound 0.3 µM
[39] = second compound 1 µM, first compound 0.00949 µM
[40] = second compound 1 µM, first compound 0.03 µM
[41] = second compound 1 µM, first compound 0.0949 µM
[42] = second compound 1 µM, first compound 0.3 µM
[43] = second compound 3.16 µM, first compound 0.00949 µM
[44] = second compound 3.16 µM, first compound 0.03 µM
[45] = second compound 3.16 µM, first compound 0.0949 µM
[46] = second compound 3.16 µM, first compound 0.3 µM
[47] = second compound 10 µM, first compound 0.00949 µM
[48] = second compound 10 µM, first compound 0.03 µM
[49] = second compound 10 µM, first compound 0.0949 µM
[50] = second compound 10 µM, first compound 0.3 µM
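Note: 7 day exposure to compounds.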
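Throughout, for viability, T/C: 100% = DMSO vehicle control viability.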

## CC1(C)CCC(CN2CCN(c3ccc(C(=O)NS(=O)(=O)c4ccc(NCC5CCOCC5)c([N+](=O)[O-])c4)c(Oc4cnc5[nH]ccc5c4)c3)CC2)=C(c2ccc(Cl)cc2)C1 + NC1CCC(NC2CC2c2ccccc2)CC1
Second compound 0.1 µM
  pIC50: 5.31
Second compound 0.316 µM
  pIC50: 5.30
Second compound 1 µM
  pIC50: 5.29
Second compound 3.16 µM
  pIC50: 5.30
Second compound 10 µM
  pIC50: 5.34
[1]
  viability, T/C: 92%
[2]
  viability, T/C: 114%
[3]
  viability, T/C: 101%
[4]
  viability, T/C: 97.7%
[5]
  viability, T/C: 73.5%
[6]
  viability, T/C: 12%
[7]
  viability, T/C: 106%
[8]
  viability, T/C: 117%
[9]
  viability, T/C: 99.4%
[10]
  viability, T/C: 109%
[11]
  viability, T/C: 74.9%
[12]
  viability, T/C: 11.5%
[13]
  viability, T/C: 100%
[14]
  viability, T/C: 105%
[15]
  viability, T/C: 106%
[16]
  viability, T/C: 101%
[17]
  viability, T/C: 77.9%
[18]
  viability, T/C: 11.3%
[19]
  viability, T/C: 107%
[20]
  viability, T/C: 107%
[21]
  viability, T/C: 115%
[22]
  viability, T/C: 95.8%
[23]
  viability, T/C: 79.2%
[24]
  viability, T/C: 8.73%
[25]
  viability, T/C: 98.9%
[26]
  viability, T/C: 107%
[27]
  viability, T/C: 96.6%
[28]
  viability, T/C: 97.6%
[29]
  viability, T/C: 69.1%
[30]
  viability, T/C: 9.39%

## CC1COCCN1c1cc(C2(S(C)(=N)=O)CC2)nc(-c2ccnc3[nH]ccc23)n1 (stereo not given) + NC1CCC(NC2CC2c2ccccc2)CC1
Second compound 0.1 µM
  pIC50: 6.36
Second compound 0.316 µM
  pIC50: 6.34
Second compound 1 µM
  pIC50: 6.36
Second compound 3.16 µM
  pIC50: 6.29
Second compound 10 µM
  pIC50: 6.27
[1]
  viability, T/C: 123%
[2]
  viability, T/C: 108%
[3]
  viability, T/C: 63%
[4]
  viability, T/C: 17.9%
[5]
  viability, T/C: 10.8%
[6]
  viability, T/C: 6.11%
[7]
  viability, T/C: 117%
[8]
  viability, T/C: 115%
[9]
  viability, T/C: 65.1%
[10]
  viability, T/C: 17.7%
[11]
  viability, T/C: 11%
[12]
  viability, T/C: 7.27%
[13]
  viability, T/C: 118%
[14]
  viability, T/C: 112%
[15]
  viability, T/C: 62.8%
[16]
  viability, T/C: 17.5%
[17]
  viability, T/C: 11.1%
[18]
  viability, T/C: 6.95%
[19]
  viability, T/C: 122%
[20]
  viability, T/C: 123%
[21]
  viability, T/C: 71.3%
[22]
  viability, T/C: 21.8%
[23]
  viability, T/C: 11.5%
[24]
  viability, T/C: 7.92%
[25]
  viability, T/C: 115%
[26]
  viability, T/C: 123%
[27]
  viability, T/C: 71%
[28]
  viability, T/C: 26.1%
[29]
  viability, T/C: 16.7%
[30]
  viability, T/C: 9.23%

## CCN(c1cc(-c2ccc(CN3CCOCC3)cc2)cc(C(=O)NCc2c(C)cc(C)[nH]c2=O)c1C)C1CCOCC1 + NC1CCC(NC2CC2c2ccccc2)CC1
Second compound 0.1 µM
  pIC50: < 5.52
Second compound 0.316 µM
  pIC50: < 5.52
Second compound 1 µM
  pIC50: < 5.52
Second compound 3.16 µM
  pIC50: < 5.52
Second compound 10 µM
  pIC50: < 5.52
[31]
  viability, T/C: 108%
[32]
  viability, T/C: 94%
[33]
  viability, T/C: 108%
[34]
  viability, T/C: 116%
Second compound 0.1 µM, first compound 0.949 µM
  viability, T/C: 105%
Second compound 0.1 µM, first compound 3 µM
  viability, T/C: 110%
[35]
  viability, T/C: 112%
[36]
  viability, T/C: 102%
[37]
  viability, T/C: 110%
[38]
  viability, T/C: 112%
Second compound 0.316 µM, first compound 0.949 µM
  viability, T/C: 113%
Second compound 0.316 µM, first compound 3 µM
  viability, T/C: 113%
[39]
  viability, T/C: 122%
[40]
  viability, T/C: 121%
[41]
  viability, T/C: 108%
[42]
  viability, T/C: 111%
Second compound 1 µM, first compound 0.949 µM
  viability, T/C: 111%
Second compound 1 µM, first compound 3 µM
  viability, T/C: 102%
[43]
  viability, T/C: 110%
[44]
  viability, T/C: 115%
[45]
  viability, T/C: 107%
[46]
  viability, T/C: 117%
Second compound 3.16 µM, first compound 0.949 µM
  viability, T/C: 121%
Second compound 3.16 µM, first compound 3 µM
  viability, T/C: 111%
[47]
  viability, T/C: 105%
[48]
  viability, T/C: 94.8%
[49]
  viability, T/C: 95.9%
[50]
  viability, T/C: 107%
Second compound 10 µM, first compound 0.949 µM
  viability, T/C: 109%
Second compound 10 µM, first compound 3 µM
  viability, T/C: 98.3%

## Nc1ncn(C2CC(O)C(CO)S2)c(=O)n1 (stereo not given) + NC1CCC(NC2CC2c2ccccc2)CC1
Second compound 0.1 µM
  pIC50: 7.11
Second compound 0.316 µM
  pIC50: 7.13
Second compound 1 µM
  pIC50: 7.14
Second compound 3.16 µM
  pIC50: 7.12
Second compound 10 µM
  pIC50: 7.05
Second compound 0.1 µM, first compound 0.000949 µM
  viability, T/C: 125%
Second compound 0.1 µM, first compound 0.003 µM
  viability, T/C: 126%
[31]
  viability, T/C: 132%
[32]
  viability, T/C: 107%
[33]
  viability, T/C: 38.1%
[34]
  viability, T/C: 9.48%
Second compound 0.316 µM, first compound 0.000949 µM
  viability, T/C: 108%
Second compound 0.316 µM, first compound 0.003 µM
  viability, T/C: 129%
[35]
  viability, T/C: 123%
[36]
  viability, T/C: 105%
[37]
  viability, T/C: 34.9%
[38]
  viability, T/C: 10.6%
Second compound 1 µM, first compound 0.000949 µM
  viability, T/C: 115%
Second compound 1 µM, first compound 0.003 µM
  viability, T/C: 125%
[39]
  viability, T/C: 146%
[40]
  viability, T/C: 90%
[41]
  viability, T/C: 40.3%
[42]
  viability, T/C: 11.5%
Second compound 3.16 µM, first compound 0.000949 µM
  viability, T/C: 119%
Second compound 3.16 µM, first compound 0.003 µM
  viability, T/C: 132%
[43]
  viability, T/C: 140%
[44]
  viability, T/C: 109%
[45]
  viability, T/C: 35.7%
[46]
  viability, T/C: 12.7%
Second compound 10 µM, first compound 0.000949 µM
  viability, T/C: 118%
Second compound 10 µM, first compound 0.003 µM
  viability, T/C: 125%
[47]
  viability, T/C: 144%
[48]
  viability, T/C: 112%
[49]
  viability, T/C: 46.9%
[50]
  viability, T/C: 13.3%
